Experimental data reported in patent US20040014637A1, “Mechanism for the inactivation of insulin receptor and uses in the treatment of type II diabetes” (McGill University, priority 1998, published 2004).

Columns and labels:
insulin receptor = molecular target: T1, insulin receptor (Rattus norvegicus, UniProt P15127); experiment: 125I-insulin binding after preincubating endosomes (ENs containing IR) with nucleotides; settings: Table 2; addition 10 mM, 37° C. 15 min; normalized to endosomes without nucleotide
T1 construct: from tissue; host or cells: rat liver; endosome (EN) and plasma membrane (PM) fractions
T1 sequence (P15127 27-759 limits assumed): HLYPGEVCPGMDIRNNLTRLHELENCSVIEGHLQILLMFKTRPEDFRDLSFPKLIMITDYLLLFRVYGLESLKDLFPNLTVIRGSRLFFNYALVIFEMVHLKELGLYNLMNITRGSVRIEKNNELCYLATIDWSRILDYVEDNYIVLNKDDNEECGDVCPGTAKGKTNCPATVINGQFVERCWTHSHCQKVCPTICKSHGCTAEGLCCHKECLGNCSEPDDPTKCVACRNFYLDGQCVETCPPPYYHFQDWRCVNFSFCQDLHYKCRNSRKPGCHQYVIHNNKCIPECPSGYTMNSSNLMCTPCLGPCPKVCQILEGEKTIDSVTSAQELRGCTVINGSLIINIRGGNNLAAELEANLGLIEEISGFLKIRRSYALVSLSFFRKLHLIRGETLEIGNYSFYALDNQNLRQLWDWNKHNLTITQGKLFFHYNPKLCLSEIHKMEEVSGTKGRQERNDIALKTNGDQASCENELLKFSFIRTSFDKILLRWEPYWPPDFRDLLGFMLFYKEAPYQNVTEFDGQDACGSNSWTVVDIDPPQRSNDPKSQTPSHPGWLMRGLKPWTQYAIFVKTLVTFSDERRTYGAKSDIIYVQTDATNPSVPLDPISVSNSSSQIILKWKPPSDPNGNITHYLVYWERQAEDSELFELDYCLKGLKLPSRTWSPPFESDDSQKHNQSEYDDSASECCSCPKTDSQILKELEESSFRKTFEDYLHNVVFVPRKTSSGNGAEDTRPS
T1 sequence (P15127 764-1383 limits assumed): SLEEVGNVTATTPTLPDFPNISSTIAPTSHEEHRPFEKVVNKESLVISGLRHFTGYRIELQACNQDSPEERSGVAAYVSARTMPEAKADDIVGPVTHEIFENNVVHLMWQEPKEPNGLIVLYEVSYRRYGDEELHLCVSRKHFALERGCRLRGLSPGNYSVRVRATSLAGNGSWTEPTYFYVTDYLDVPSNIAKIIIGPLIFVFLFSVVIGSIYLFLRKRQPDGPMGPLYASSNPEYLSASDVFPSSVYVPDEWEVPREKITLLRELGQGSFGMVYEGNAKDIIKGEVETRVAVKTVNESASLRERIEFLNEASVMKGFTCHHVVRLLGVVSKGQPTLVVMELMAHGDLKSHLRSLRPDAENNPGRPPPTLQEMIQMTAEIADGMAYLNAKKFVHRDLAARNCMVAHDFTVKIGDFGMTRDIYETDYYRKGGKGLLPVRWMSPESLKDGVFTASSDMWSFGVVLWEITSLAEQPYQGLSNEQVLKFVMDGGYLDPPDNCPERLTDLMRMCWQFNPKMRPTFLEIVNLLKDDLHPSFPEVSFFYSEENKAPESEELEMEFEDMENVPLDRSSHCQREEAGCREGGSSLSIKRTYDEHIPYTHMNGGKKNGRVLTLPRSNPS
Method: Rats were anaesthetized with ether and were injected via jugular vein with a dose (per 100 g body weight) of insulin (1.5 μg), or bpV(phen) (0.6 μmol), dissolved in 0.2 ml. phosphate buffered saline (pH 7.4) −0.1% BSA. […] Livers were rapidly excised, placed in ice-cold homogenizing buffer (50 mM HEPES (pH 7.4), 0.25 M sucrose, 1 mM PMSF, 1 MM MgCl2, 1 mM benzamidine) and minced before homogenization. […] These subcellular fractions have been characterized in detail both morphologically and biochemically.
After 10 min at room temperature, the reactions was terminated by spotting 50 μl aliquots on Whatman 3 MM filters.
In the present study we wished to assess whether other processes might be involved in reducing the association of intraendosomal insulin with its receptor. We examined the effect of incubating intact ENs containing IR with increasing concentrations of ATP on subsequently measured insulin and hGH binding in both solubilized and WGA-purified receptors.

[1] = molecular target: T2, insulin receptor kinase (IRK) β-subunit (Rattus norvegicus, UniProt P15127); experiment: IRK β-subunit phosphotyrosine content (αPY immunoblot of WGA eluates); type: biochemical
T2 construct: from tissue; host or cells: rat liver; endosome (EN) and plasma membrane (PM) fractions
T2 sequence (P15127 27-759 limits assumed): as the sequence (P15127 27-759 limits assumed) above
T2 sequence (P15127 764-1383 limits assumed): as the sequence (P15127 764-1383 limits assumed) above
Method: The phosphotyrosine content of endosomal IRs (ENs containing IR) was determined by subjecting lectin column (WGA-Sepharose™)-purified preparations to SDS-PAGE and immunoblotting with α960 and αPY (Faure et al. (1992) J. Biol. Chem. 267, 11215-11221). […] FIG. 1B illustrates the effect of ATP on β subunit phosphotyrosine content. WGA eluates (5 μg protein) were subjected to SDS-PAGE in 7.5% gels followed by transfer of proteins to Immobilon-P membranes. Membranes were probed with αPY or α960 antibodies followed by incubation with ^125I-GAR as second antibody and exposed for autoradiography.

[2] = molecular target: T3, insulin receptor kinase (IRK) (Rattus norvegicus, UniProt P15127); experiment: Insulin receptor kinase (IRK) exogenous tyrosine kinase activity, Poly (Glu:Tyr) (4:1) substrate, WGA-purified IRK from preincubated cell fractions; type: biochemical
T3 construct: from tissue; host or cells: rat liver; endosome (EN) and plasma membrane (PM) fractions
T3 sequence (P15127 27-759 limits assumed): as the sequence (P15127 27-759 limits assumed) above
T3 sequence (P15127 764-1383 limits assumed): as the sequence (P15127 764-1383 limits assumed) above

[3] = treatment of Type II diabetic patients; cited from earlier work
[4] = system: intraendosomal insulin degradation; settings: cited from earlier work

Nc1ncnc2c1ncn2[C@@H]1O[C@H](COP(=O)(O)OP(=O)(O)NP(=O)(O)O)[C@@H](O)[C@H]1O [AMP—P—N—P]
125I-Insulin specific binding (%), Solubilized endosomes (insulin receptor): 112.2 ± 2.8% | 125I-Insulin specific binding (%), WGA-purified endosomes (insulin receptor): 99.1 ± 1.0%

O=P([O-])([O-])OP(=O)([O-])[O-].[Na+].[Na+].[Na+].[Na+] [NaPiPi, sodium pyrophosphate]
125I-Insulin specific binding (%), WGA-purified endosomes (insulin receptor): 97.8 ± 2.3%

CO/C1=C\C(C)=C\[C@@H](C)[C@@H](O)[C@@H](C)C/C(C)=C/C=C/[C@H](OC)[C@@H]([C@@H](C)[C@@H](O)[C@H](C)[C@@]2(O)C[C@@H](O)[C@H](C)[C@@H](C(C)C)O2)OC1=O [Bafilomycin A1]
Level of IRK tyrosine phosphorylation at 5 mM ATP (FIG. 4B) ([1]; in the presence of Bafilomycin (1 μM), 5 mM ATP): comparable to that observed at 1 mM ATP | Effect on ability of ATP to reduce IRK activation (FIG. 4A) ([2]; 1 μM Bafilomycin A1 preincubation 30 min 37° C., then 5 and 10 mM ATP 15 min): marked attenuation | Effect on inhibition of IRK tyrosine phosphorylation and activity by 5 mM ATP ([2]; ENs containing IR incubated with 5 mM ATP): completely reversed | IRK activity in ENs after preincubation, before ATP additions ([2]; preincubation with 1 μM Bafilomycin A1, 30 min 37° C. (without: 1.3)): 1.4 pmol/10 min/10 fmol insulin binding

O.O.O.OO.OO.[K+].[OH-].[V].c1cnc2c(c1)ccc1cccnc12 [bpV(phen)]
Effect on reduction in β-subunit tyrosine phosphorylation by 5 mM ATP (FIG. 6B) ([1]; bpV(phen) 0.1 mM in vitro or rats pretreated): did not influence the reduction | Effect on suppression of IRK activity by 5 mM ATP (FIG. 6A) ([2]; coincubation of ENs with 0.1 mM bpV(phen)): did not prevent | IRK activity of ENs isolated from pretreated rats ([2]; rats given bpV(phen) 0.6 μmol/100 g body weight i.v., ENs at 15 min): augmented IRK activity

Nc1ncnc2c1ncn2[C@@H]1O[C@H](CO)[C@@H](O)[C@H]1O [Adenosine, adenosine]
125I-Insulin specific binding (%), Solubilized endosomes (insulin receptor): 94.5 ± 4.1% | 125I-Insulin specific binding (%), WGA-purified endosomes (insulin receptor): 105.9 ± 3.3%

Nc1ncnc2c1ncn2[C@@H]1O[C@H](COP(=O)(O)OP(=O)(O)CP(=O)(O)O)[C@@H](O)[C@H]1O [AMP—P—C—P]
125I-Insulin specific binding (%), Solubilized endosomes (insulin receptor): 109.1 ± 0.9% | 125I-Insulin specific binding (%), WGA-purified endosomes (insulin receptor): 95.1 ± 2.0% | Effect on level of IRK activity (FIG. 2) ([2]; 5 mM AMP-P-C-P, in the presence or absence of 1 mM ATP): no effect

Nc1ncnc2c1ncn2[C@@H]1O[C@H](COP(=O)(O)OP(=O)(O)O)[C@@H](O)[C@H]1O [ADP]
125I-Insulin specific binding (%), Solubilized endosomes (insulin receptor): 96.3 ± 6.4% | 125I-Insulin specific binding (%), WGA-purified endosomes (insulin receptor): 82.7 ± 5.2%

CCN(CC)CCCC(C)Nc1ccnc2cc(Cl)ccc12 (stereo not shown) [chloroquine]
Glucose metabolism in Type II diabetic patients [3]: improve glucose metabolism | Intraendosomal insulin degradation [4]: inhibits intraendosomal insulin degradation
